Assay results taken from the supplement of paper PMC10307832.

Columns and labels:
Experiment in all cases: relative viability (nuclei count vs DMSO), 5 days (fraction); higher = more cells survive
[1] = compound: COc1cc2ncn(-c3cc(OCc4ccccc4C(F)(F)F)c(C(N)=O)s3)c2cc1OC
Procedure, shortened: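 Acceptance criteria were a control CV below 25% and at least one doubling per plate. Lung cancer cell lines in 1536-well plates got five library-drug doses (not always all listed) √10 apart by pinning and were left 5 days with no medium change. Viability divides treated-well nuclei by vehicle-well nuclei and is the median across plates. Nuclei were counted by MetaXpress from 4× Hoechst images.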

[2] = compound: COc1cc2ncn(-c3cc(OCc4ccccc4C(F)(F)F)c(C(N)=O)s3)c2cc1OC + CC(C)C[C@H](NC(=O)[C@H](Cc1ccccc1)NC(=O)c1cnccn1)B(O)O [Bortezomib] (partner 0.002 µM)
Procedure, shortened: (§1)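 One day after seeding in 1536-well plates, lung cancer cell lines were dosed by pin tool. Dosing was either single-drug or a fixed anchor-drug dose plus five library-drug doses (not always all listed) in √10 steps. After 5 days, nuclei were stained in one fix-and-stain step and counted on 4× images, and relative viability is the nuclei count of treated wells over that of vehicle wells, given as the median of duplicate plates.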

[3] = compound: COc1cc2ncn(-c3cc(OCc4ccccc4C(F)(F)F)c(C(N)=O)s3)c2cc1OC + CC1(C)CCC(c2ccc(Cl)cc2)=C(CN2CCN(c3ccc(C(=O)NS(=O)(=O)c4ccc(N[C@H](CCN5CCOCC5)CSc5ccccc5)c(S(=O)(=O)C(F)(F)F)c4)cc3)CC2)C1 [Navitoclax] (partner 0.5 µM)
Procedure, shortened: as §1

[4] = compound: COc1cc2ncn(-c3cc(OCc4ccccc4C(F)(F)F)c(C(N)=O)s3)c2cc1OC + COc1cc2c(Oc3ccc(NC(=O)C4(C(=O)Nc5ccc(F)cc5)CC4)cc3F)ccnc2cc1OCCCN1CCOCC1 [Foretinib] (partner 0.25 µM)
Procedure, shortened: as §1

[5] = compound: COc1cc2ncn(-c3cc(OCc4ccccc4C(F)(F)F)c(C(N)=O)s3)c2cc1OC + CS(=O)(=O)CCNCc1ccc(-c2ccc3ncnc(Nc4ccc(OCc5cccc(F)c5)c(Cl)c4)c3c2)o1 [Lapatinib] (partner 2 µM)
Procedure, shortened: as §1

[6] = compound: COc1cc2ncn(-c3cc(OCc4ccccc4C(F)(F)F)c(C(N)=O)s3)c2cc1OC + CS(=O)(=O)N1CCN(Cc2cc3nc(-c4cccc5[nH]ncc45)nc(N4CCOCC4)c3s2)CC1 [Pictilisib] (partner 1 µM)
Procedure, shortened: as §1

[7] = compound: COc1cc2ncn(-c3cc(OCc4ccccc4C(F)(F)F)c(C(N)=O)s3)c2cc1OC + C[C@@H](Oc1cc(-c2cnn(C3CCNCC3)c2)cnc1N)c1c(Cl)ccc(F)c1Cl [Crizotinib] (partner 1 µM)
Procedure, shortened: as §1

[8] = compound: COc1cc2ncn(-c3cc(OCc4ccccc4C(F)(F)F)c(C(N)=O)s3)c2cc1OC + C[C@]1(O)C[C@@H](c2nc(-c3ccc4ccc(-c5ccccc5)nc4c3)c3c(N)nccn32)C1 [Linsitinib] (partner 1 µM)
Procedure, shortened: as §1

[9] = compound: COc1cc2ncn(-c3cc(OCc4ccccc4C(F)(F)F)c(C(N)=O)s3)c2cc1OC + Cc1nc(NC(=O)N2CCC[C@H]2C(N)=O)sc1-c1ccnc(C(C)(C)C(F)(F)F)c1 [Alpelisib] (partner 2 µM)
Procedure, shortened: as §1

[10] = compound: COc1cc2ncn(-c3cc(OCc4ccccc4C(F)(F)F)c(C(N)=O)s3)c2cc1OC + O=C(CCCCCCC(=O)Nc1ccccc1)NO [Vorinostat] (partner 1 µM)
Procedure, shortened: as §1

[11] = compound: COc1cc2ncn(-c3cc(OCc4ccccc4C(F)(F)F)c(C(N)=O)s3)c2cc1OC + O=C(c1cc(Cc2n[nH]c(=O)c3ccccc23)ccc1F)N1CCN(C(=O)C2CC2)CC1 [Olaparib] (partner 8 µM)
Procedure, shortened: as §1

IA-LM
relative viability ([1]; 0.05 µM): 0.865
relative viability ([1]; 0.1581 µM): 0.81
relative viability ([1]; 0.5 µM): 0.109
relative viability ([1]; 1.581 µM): 0.0808
relative viability ([1]; 5 µM): 0.0819
relative viability ([2]; first compound 0.05 µM): 0.747
relative viability ([2]; first compound 0.1581 µM): 0.479
relative viability ([2]; first compound 0.5 µM): 0.0694
relative viability ([2]; first compound 1.581 µM): 0.0622
relative viability ([2]; first compound 5 µM): 0.0584
relative viability ([3]; first compound 0.05 µM): 0.89
relative viability ([3]; first compound 0.1581 µM): 0.411
relative viability ([3]; first compound 0.5 µM): 0.0188
relative viability ([3]; first compound 1.581 µM): 0.0121
relative viability ([3]; first compound 5 µM): 0.0246
relative viability ([4]; first compound 0.05 µM): 1.16
relative viability ([4]; first compound 0.1581 µM): 0.987
relative viability ([4]; first compound 0.5 µM): 0.328
relative viability ([4]; first compound 1.581 µM): 0.0521
relative viability ([4]; first compound 5 µM): 0.0505
relative viability ([5]; first compound 0.05 µM): 0.617
relative viability ([5]; first compound 0.1581 µM): 0.49
relative viability ([5]; first compound 0.5 µM): 0.0998
relative viability ([5]; first compound 1.581 µM): 0.083
relative viability ([5]; first compound 5 µM): 0.0955
relative viability ([6]; first compound 0.05 µM): 0.46
relative viability ([6]; first compound 0.1581 µM): 0.262
relative viability ([6]; first compound 0.5 µM): 0.0711
relative viability ([6]; first compound 1.581 µM): 0.0659
relative viability ([6]; first compound 5 µM): 0.0766
relative viability ([7]; first compound 0.05 µM): 0.717
relative viability ([7]; first compound 0.1581 µM): 0.395
relative viability ([7]; first compound 0.5 µM): 0.198
relative viability ([7]; first compound 1.581 µM): 0.0759
relative viability ([7]; first compound 5 µM): 0.0777
relative viability ([8]; first compound 0.05 µM): 0.58
relative viability ([8]; first compound 0.1581 µM): 0.606
relative viability ([8]; first compound 0.5 µM): 0.172
relative viability ([8]; first compound 1.581 µM): 0.0675
relative viability ([8]; first compound 5 µM): 0.0619
relative viability ([9]; first compound 0.05 µM): 0.701
relative viability ([9]; first compound 0.1581 µM): 0.493
relative viability ([9]; first compound 0.5 µM): 0.107
relative viability ([9]; first compound 1.581 µM): 0.0655
relative viability ([9]; first compound 5 µM): 0.0465
relative viability ([10]; first compound 0.05 µM): 0.916
relative viability ([10]; first compound 0.1581 µM): 0.803
relative viability ([10]; first compound 0.5 µM): 0.241
relative viability ([10]; first compound 1.581 µM): 0.0678
relative viability ([10]; first compound 5 µM): 0.0714
relative viability ([11]; first compound 0.05 µM): 0.75
relative viability ([11]; first compound 0.1581 µM): 0.602
relative viability ([11]; first compound 0.5 µM): 0.123
relative viability ([11]; first compound 1.581 µM): 0.0768
relative viability ([11]; first compound 5 µM): 0.0783
